This note sets out measurements from patent publication US20240148664A1, “LIPID AND COMPOSITION” (SOGO PHARMACEUTICAL CO., LTD., priority 2021, published 2024).

Common to all, as to format: cell-based
Data set [1] has as its system HT1080-EGFP (human/fibrosarcoma) cells. The data set can be described thus: Evaluation of toxicity: CCK-8 assay. The note with it: lipid nanoparticle containing siRNA; absorbance relative to control cells without lipid nanoparticle set at 1.00. On the procedure: A. Provision of Cells • (i) A liquid medium (DMEM/Ham's F12, FBS+, P/S+) (FBS: fetal bovine serum, P/S: antibiotic) was taken out from a refrigerator and temperature-controlled in an incubator set at 37° C. • (ii) A cryotube containing the cells was taken out from a −80° C. freezer and thawed at once in an incubator set at 37° C. • (iii) A stock solution of the thawed cells was collected in a capped test tube. • (iv) The tube containing the cells was washed with the liquid medium, and the wash was also collected in the test tube. • (v) The tube was subjected to a centrifuge to precipitate the cells. • (vi) The supernatant was aspirated, and the liquid medium was added and gently tapped to disperse the cells. • (vii) A small amount of the cells-dispersed liquid medium was collected, and the number of cells was observed and counted under a microscope. • (viii) The cells were seeded in a 24-well plate such that the number of cells was 2×10^4 cells per well. For the plate for an LDH assay described later, the cells were seeded in a 96-well plate such that the number of cells was 4×10^3 cells per well. • (ix) The 24-well plate or the 96-well plate was placed in an incubator, and the cells were cultured for 24 hours under conditions of 37° C. and 5% CO2.
The produced lipid nanoparticles were introduced into cells. • (i) Fetal bovine serum (FBS) was added to a liquid medium (FBS-, P/S-) temperature-controlled as in (i) of A above, in such a way as to reach 10%. • (ii) A 24-well plate was taken out from an incubator, and the liquid medium supernatant in the 24-well plate was aspirated and washed with phosphate buffered saline (PBS). • (iii) 400 μL of the liquid medium produced in (i) above was added to the washed 24-well plate. In addition, 100 μL of an LNP solution having an adjusted concentration was added. • (iv) The 24-well plate was placed in the incubator, and the cells were cultured (for 24 hours). • (v) After 24 hours, the liquid medium supernatant in the 24-well plate was aspirated, and 500 μL of a liquid medium containing 10% FBS (FBS+/P/S+) was added. • (vi) The 24-well plate was placed in the incubator, and the cells were cultured for 24 hours under conditions of 37° C. and 5% CO2.
For Examples 1 to 9, a CCK-8 assay or an LDH assay was carried out to measure the metabolic activity of viable cells and relatively quantify the number of surviving cells to evaluate the toxicity of lipid nanoparticles.
(a) CCK-8 Assay • (i) Fetal bovine serum (FBS) and a viable cell counting kit (manufactured by DOJINDO LABORATORIES, Cell Count Kit-8) was added to a liquid medium (FBS-, P/S-) temperature-controlled as in (i) of A above, such that FBS was 10% and the kit was 10%. • (ii) A 24-well plate was taken out from an incubator. The liquid medium was removed, and 315 μL of the liquid medium containing the viable cell counting kit produced in (i) above was added. • (iii) The liquid medium was aged for 1 hour in the incubator. • (iv) The 24-well plate was taken out, and the absorbance was measured under conditions of a measurement wavelength of 450 nm and a target wavelength of 630 nm with a plate reader (manufactured by TECAN, Infinite M200). The absorbance was calculated with the absorbance of control cells to which no lipid nanoparticle was added set at 1.00. When the obtained value was 0.80 or more and 1.00 or less, a rating of double-circle (excellent) was given, when the obtained value was 0.50 or more and less than 0.80, a rating of circle (good) was given, when the obtained value was 0.20 or more and less than 0.50, a rating of triangle (fair) was given, and when the obtained value was less than 0.20, a rating of X-mark (poor) was given.
A general note: Formazan colour is commonly taken as a measure of viable cells.

In another data set the test system is NIH3T3 cells. The experiment in a line: Evaluation of protein expression effect (luciferase luminescence), Cell experiment 2. The note with it: lipid nanoparticle containing mRNA, 100 ng mRNA/20 μL per well, 24 hours, amount of luminescence as index. On the procedure: (§1) For lipids (Ia), (Ib), and (Ie) of Examples 1, 2, and 5, a cell experiment was carried out by using HEK293T cells and NIH3T3 cells in order to evaluate lipid nanoparticles encapsulating an mRNA. By transfecting the cells with lipid nanoparticles and measuring the amount of a predetermined protein produced, the performance of the lipid nanoparticles used can be evaluated. Hereinafter, the procedure of the cell experiment will be shown.
(§2) A. Seeding of Cells • (i) A liquid medium (DMEM High glucose, FBS+, P/S+) was temperature-controlled in an incubator set at 37° C. • (ii) A cryotube containing cells was taken out from a −80° C. freezer and thawed at once in the incubator set at 37° C. • (iii) A test tube was subjected to a centrifuge to precipitate the cells. • (iv) The supernatant was aspirated, and the liquid medium was added and gently tapped to disperse the cells. • (v) A small amount of the cells-dispersed liquid medium was collected, and the number of cells was observed and counted under a microscope. • (vi) The cells were seeded in three 24-well black plates such that the number of cells was 1×10^4 cells per well. The 24-well black plates were placed in an incubator, and the cells were cultured for 24 hours under conditions of 37° C. and 5% CO2.
(§3) B. Transfection • (i) A lipid nanoparticle-containing solution including an mRNA was concentrated such that the mRNA concentration was 100 ng/20 μL (=0.005 μg/μL). • (ii) A liquid medium (DMEM High glucose, FBS-, P/S-) and FBS were warmed to 37° C., required amounts of the liquid medium and FBS were mixed (FBS concentration of liquid medium at this time: 12.5%), and the prepared liquid medium was filter-sterilized through a 0.22 μm filter. • (iii) The liquid medium supernatant in the 24-well black plates in which the cells were cultured was aspirated and 80 μL per well of the prepared liquid medium was added. • (iv) 20 μL per well of RFW and the lipid nanoparticle-containing solution adjusted to the above concentration was added. • (v) The 24-well black plates were placed in an incubator, and the cells were cultured for 24 hours under conditions of 37° C. and 5% CO2.
(§4) C. Evaluation of Protein Expression Effect (Detection of Gaussia Luciferase (GLuc))
(§5) Evaluation of the protein expression effect was carried out by using Gaussia Luciferase Assay Kit manufactured by Thermo Scientific. • (i) The cells cultured in B. (v) above were taken out from the incubator and allowed to stand at room temperature. • (ii) 20 μL of the supernatant in the plates was collected and added to a fresh 96-well white plate. • (iii) 100× Coelenterazine and Gaussia Glow Assay Buffer attached to the kit were returned to room temperature and mixed at 1:100 to prepare a solution. The prepared solution was added to the supernatant at 50 μL per well by using a multipipette. • (iv) The plate was shielded from light with aluminum foil, allowed to stand for 10 minutes, and then measured for the amount of luminescence with a plate reader (manufactured by TECAN, Infinite M200) (measurement time: 2 seconds), and the protein expression level was calculated by using the resulting amount of luminescence as an index.

Another data set has as its system HEK293T cells. Described as above. The conditions noted are these: lipid nanoparticle containing mRNA, 100 ng mRNA/20 μL per well, 24 hours, amount of luminescence as index. Here is the method:
as §1, §2, §3, §4, §5

As for `CCCCCCCC/C=C\CCCCCCCCC(CCCCCCC/C=C\CCCCCCCC)OC(=O)C(CCC(=O)O)NC(=O)C(N)CCCNC(=N)N` (stereo not drawn) [Example 2, 4-(2-amino-5-guanidinopentanamido)-5-(((9Z,27Z)-hexatriaconta-9,27-dien-18-yl)oxy)-5-oxopentanoic acid], in data set [1], the “CCK Assay” value is “⊚ (When the obtained value was 0.80 or more and 1.00 or less, a rating of double-circle (excellent) was given)”. The Protein expression level was 25,000 in the data set on NIH3T3 cells and 800,000 in the data set on HEK293T cells.
Turning to `CCCCCCCC/C=C\CCCCCCCCC(CCCCCCC/C=C\CCCCCCCC)OC(=O)C(CC(=O)O)NC(=O)C(N)CCCNC(=N)N` (stereo not drawn) [Example 1, 3-(2-amino-5-guanidinopentanamido)-4-(((9Z,27Z)-hexatriaconta-9,27-dien-18-yl)oxy)-4-oxobutanoic acid], the “CCK Assay” value in data set [1] was “⊚ (When the obtained value was 0.80 or more and 1.00 or less, a rating of double-circle (excellent) was given)”. Further, the Protein expression level in the data set on NIH3T3 cells is 5,000; in the data set on HEK293T cells, 100,000.
Turning to `CCCCCCCC/C=C\CCCCCCCCC(CCCCCCC/C=C\CCCCCCCC)OC(=O)C(CO)NC(=O)C(N)CCCNC(=N)N` [Example 4, (9Z,27Z)-hexatriaconta-9,27-dien-18-yl (2S)-2-((S)-2-amino-5-guanidinopentanamido)-3-hydroxypropionate], the “CCK Assay” value in data set [1] was “◯ (when the obtained value was 0.50 or more and less than 0.80, a rating of circle (good) was given)”.
As for `CCCCCCCC/C=C\CCCCCCCCC(CCCCCCC/C=C\CCCCCCCC)OC(=O)C(NC(=O)C(N)CCCNC(=N)N)C(C)O` [Example 5, (9Z,27Z)-hexatriaconta-9,27-dien-18-yl (2S)-2-((S)-2-amino-5-guanidinopentanamido)-3-hydroxybutanoate], the values for the Protein expression level in the data set on NIH3T3 cells and with HEK293T cells were 60,000 and 100,000, respectively.
